# Source: a melting point compilation (Tetko et al.; mined from patent text by program, amines drawn as free bases though some values may be those of a salt)
row,Compound,melting point [°C]
1,Cc1nc(-c2cccc3c2C2(COc4cc5c(cc42)OCCO5)C(=O)N3C)cs1 (configuration not stated),219 to 220
2,N#CCC(O)(Cn1cncn1)c1ccc(Cl)cc1Cl (configuration not stated),217 to 219
3,COc1ccc(S(=O)(=O)Nc2ccc(F)cc2NC(=O)c2ccccc2)cc1,153 to 154
4,COC(=O)C=Cc1cccc(NC(=O)c2cccn2C)c1,89 to 90
5,CCOC(=O)C1Cc2cc3ccccc3n2C1 (configuration not stated),55 to 57
6,CC(=O)CC(=O)NC12CC3CC(CC(C3)C1)C2,80
7,CC(C)(C)OC(=O)C(Br)=CC1C(C(=O)O)C1(C)C (configuration not stated),76
8,COC(=O)CCc1ncccc1O,94 to 96
9,O=C(c1ccc(-c2ccccc2)cc1)c1cccnc1,112 to 115
10,CC(=O)Oc1ccc(NCc2c(F)c(F)c(C(F)(F)F)c(F)c2F)cc1C(=O)O,185 to 187
11,CC(C)(C)OC(=O)Nc1cc(CO)c(I)cc1[N+](=O)[O-],> 250
12,O=C(O)CN1C(=O)C(=Cc2ccc(OCc3ccccc3)c(OCc3ccc(F)c(F)c3)c2)SC1=S,231 to 236
13,COc1ccc(CC(=O)Nc2cccc3c2C(=O)c2c-3n[nH]c2-c2ccc(OC)cc2)cc1,280
14,COC(=O)C(C)=Cc1cc(N=C=S)ccc1Cl,60 to 61
15,CCc1ccc(C(=O)Nc2ccc(F)c(F)c2)cc1N,108 to 110
16,C(=C\c1cn(-c2ccccc2)nc1OCc1ccccc1)/c1cscn1,101 to 102
17,COc1cc2c(cc1Nc1ncc(Cl)c(Nc3ccccc3S(=O)(=O)N(C)C)n1)N(CC(=O)N(C)C)C(=O)CN(CC(=O)N(C)C)C2,154
18,Cn1c(C(F)(F)F)cc(=O)n(-c2c(F)cc(Cl)c3nc(C(C)(C)C)oc23)c1=O,68 to 70
19,C#CC(=CC(=O)O)c1ccccc1,130
20,CN(C)CC1CN(c2ccccc2)NC1=N (configuration not stated),117 to 118
21,CCOC(=O)c1cn(C2CC2)c2nc(N3CCC(NC(C)=O)C3)c(F)cc2c1=O (configuration not stated),246 to 248
22,CCCCCCCCCC=[N+]([O-])CCCCCCCCCC,63 to 65
23,Clc1ccc(Nc2nc3ccccc3c3[nH]c(C4CCC4)nc23)cc1Cl,131 to 134

row,Compound,melting point [°C]
1,O=C(O)CCC(O)c1ccc(-c2ccc(F)cc2Cl)cc1 (configuration not stated),78 to 79
2,COC(=O)COc1ccc(C(=O)NNC(=O)c2ccc(C(=N)SC)cc2)cc1,208 to 210
3,CCN1CCN(c2cc3c(cc2Cl)c(=O)c(C(=O)O)cn3CC)CC1,245 to 248
4,CC(=O)Nc1nc(CCc2ccc(NC(=O)OC(C)(C)C)cc2)c(C(=O)O)s1,237 to 238
5,CCCCCCCCNC(=O)Nc1ccccc1C(=O)NC1CCN(C(c2ccccc2)c2ccccc2)CC1,149 to 151
6,CCCOC(=O)c1cc(=O)c2c(OCc3ccc(OCc4ccc5ccccc5n4)cc3)c(Cl)ccc2o1,173 to 174
7,Cn1c(SSc2c(C(=O)Nc3ccccc3)c3cc(O)ccc3n2C)c(C(=O)Nc2ccccc2)c2cc(O)ccc21,185 to 187
8,CS(=O)(=O)N1C[C@@H](P(=O)(c2ccccc2)c2ccccc2)C[C@H]1CO,138 to 139
9,CC(C)(O)CNC(=O)c1cccc(-c2cccc3cc(Cc4cc(F)cc(Cl)c4)sc23)c1,123
10,CCOC(=O)C=Cc1cc(-c2ccc3c(c2)C(C)(C)CCC3(C)C)cs1,82 to 84
11,COCCOc1ccc(/C=C/c2cc(/C=C/c3ccc4cc[nH]c4c3)n[nH]2)c(OC)c1,90 to 96
12,COC(=O)c1ccoc1CCNC(=O)C[C@H]1O[C@H](c2cccc(OC)c2OC)c2cc(Cl)ccc2N(CC(C)(C)CO)C1=O,81 to 83
13,CCOC(=O)C1=CNC2=C(C(=O)OC)CCC(C)N2C1=O (configuration not stated),136 to 139
14,CC1(C)CC(NC(=O)Nc2ccccc2)c2cc(C#N)ccc2O1 (configuration not stated),214 to 215
15,COc1ccc(NC(=S)Nc2cscc2C)c(N)c1,143 to 146
16,CCOC(=O)C(=NO)c1cccnc1,137 to 138
17,CCn1c(=O)c(-c2c(Cl)cccc2Cl)cc2cnc(Nc3ccccc3)nc21,223 to 225
18,COC(=O)[C@@H]1C[C@H](C(=O)O)Nc2cc(Cl)ccc21 (relative stereo),122 to 124
19,CCOC(C)COC1CCNCC1 (configuration not stated),68 to 70
20,"CC(c1ccccc1)n1cncc1C(=O)O (single isomer, unassigned; (-))",155
21,COc1ccc(S(=O)(=O)Nc2cccc(C)c2NC(=O)c2cccnc2)cc1,207 to 209
22,N#Cc1ccc2c(c1)C(=C(Cl)Cl)OC(C(Cl)(Cl)Cl)O2 (configuration not stated),125 to 126
23,CC(=O)Nc1cc(O)c(C(=O)CCCCCl)cc1Cl,126 to 128

row,Compound,melting point [°C]
1,CC(C)(C)NC(=O)[C@@H]1CCCC[C@H]1C[C@@H](O)[C@H](Cc1ccccc1)NC(=O)[C@H](CC(N)=O)NC(=O)c1cc(Cl)cc(Cl)c1,220 to 226
2,O=C(Nc1ccc(OCc2ccncc2)c2ccccc12)c1cc(F)cc(OC2CCOCC2)c1,182 to 184
3,CN(N(S(C)(=O)=O)S(C)(=O)=O)S(C)(=O)=O,123 to 124
4,CC1(COc2ccc([N+](=O)[O-])cc2)CC(=O)c2cc(C(=O)O)ccc2O1 (configuration not stated),227 to 235
5,CCC(=O)N1CCNC1=Nc1ccc(Cl)cc1Cl,126 to 128
6,COc1ccc(-c2cc(S(C)(=O)=O)nnc2-c2ccc(OC)cc2)cc1,137 to 140
7,CCCCCCCCCCCCCCOc1ccc(C(=O)C(Br)c2ccc([N+](=O)[O-])cc2)cc1 (configuration not stated),55 to 56
8,O=C(c1ccccc1)c1ccc(-c2ccc(CBr)cc2)cc1,110 to 112
9,C=CCN1C(=O)C(C)N(c2ccc(Cc3ccccc3)cc2)C1=S (configuration not stated),62 to 64
10,NS(=O)(=O)c1ccc(-c2cnn(-c3ccc(F)cc3)c(=O)c2-c2ccc(F)cc2)cc1,213 to 216
11,CN(C(=O)c1cccs1)c1cccc2cc(-c3nccs3)[nH]c12,250
12,C[Si](C)(C)CCOC1OC(CO)C(O)C(O)C1N=[N+]=[N-] (configuration not stated),158 to 161
13,Cc1ccc(S(=O)(=O)OCC2CCc3ccc4[nH]c(C(F)(F)F)nc4c3O2)cc1 (configuration not stated),160
14,CS(=O)c1ccc(CCCCCCCCCCC(Cl)(Cl)C(=O)O)cc1 (configuration not stated),75 to 76
15,CCOC(=O)C1(C(=O)OCC)CCC2(CC1)NCCc1cc(O)c(O)cc12,180 to 181
16,CC1(C)C=C(n2cc(C#N)c3ccccc32)c2cc(C#N)ccc2O1,192 to 193
17,CC(C)(CCCCOCCCCc1ccc(N2CCOCC2)cc1)NCC(O)c1ccc(O)c(NS(C)(=O)=O)c1 (configuration not stated),165 to 167
18,COc1ccc(O)c(NC(C)=O)c1,156 to 157
19,C#CC(O)(c1ccccc1)c1ccncc1 (configuration not stated),165 to 166
20,COc1cc(C2c3cc4c(cc3C(NC3=CC(=O)N(CCCCCC(=O)O)C3=O)C3COC(=O)C23)OCO4)cc(OC)c1O (configuration not stated),150 to 152
21,COc1ccc2c(=O)c(-c3ccc(OCC(O)CN4CCOCC4)cc3)coc2c1 (configuration not stated),117 to 118

# Further lines, results first:
row,melting point [°C],Compound
1,101 to 103,Cc1ncn(CCCOc2c(C)cc(-c3nnn(C)n3)cc2C)n1
2,175 to 177,CCOC(=O)c1cn(CCO)c2c(F)c(F)c(F)cc2c1=O
3,263 to 267,Cc1cc(=O)n2nc(-c3ccncc3)nc2n1C
4,262,CN1CCC(=C2c3c(ccn3C)C=Cn3cnnc32)CC1
5,182 to 184,COc1ccc2nc(Cl)cc(CC#N)c2c1
6,61,CCCCCNC(=O)N(C)c1cccc(-c2ccc(C=C(OC)C(=O)O)cc2OCCCC)c1
7,74 to 76,CCSC(=S)N1Cc2[nH]c3ccccc3c2CC1CO (configuration not stated)
8,338 to 340,Cc1cc2nc3ccc(C(=O)O)cn3c(=O)c2s1
9,71.5,CCOC(=O)c1ccc(/C=C(\C)c2ccc(OC)c(C(C)(C)C)c2)cc1
10,100 to 104,CC(=O)ON=C(N)c1cccc(C(=O)NCCCNC(=O)[C@@H]2CCCN2S(=O)(=O)c2ccc(Cl)c(COc3cccc4c(C)cc(C)nc34)c2Cl)c1
11,132 to 133,CCCCc1nc2cc(Cl)cc(C(=O)OC)c2n1Cc1ccc(-c2ccccc2-c2nnn[nH]2)cc1
12,70,Cc1cc(-n2ccnc2)c2cccc(OCc3c(Cl)ccc(S(=O)(=O)N4CCC[C@H]4C(=O)N(C)CCCN(C)C(=O)OC(C)(C)C)c3Cl)c2n1
13,30,CCOC(=O)c1cc(Br)c(C(=O)OCC)cc1F
14,187 to 189,CCCCc1nc2c(N)nc3cc(-c4ccc(OC)cc4OC)ccc3c2n1CC(C)C
15,139 to 140,CCOC(=O)c1nc(-c2ccccc2)nc2c1c1ccc(Cl)cc1n2C
16,218 to 220,COC(=O)C1=C(C)NC(C)=C(C(=O)OC)C1c1ccccc1CO
17,243 to 246,COc1ccc(-c2nc(NC(C)=O)n3nc(-c4ccco4)nc3n2)cc1
18,69 to 70,CC(=O)OCCOCn1cnc2c(N)nc(N)nc21
19,304 to 305,Cn1ncc2c1C(=O)Nc1cccnc1N2
20,174 to 175,Cc1cc(C)cc(Nc2nnc(Cc3ccncc3)c3ccccc23)c1
21,190,CN(C)CCCOc1ccc2ccc(NC(=O)c3c(F)cccc3F)nc2n1
22,270 to 272,Cc1ccc2nc(C)n(C3CCC(=O)NC3=O)c(=O)c2c1 (configuration not stated)
23,224 to 228,COc1cc2ncc(C#N)c(Nc3cccc(Br)c3)c2cc1OC
24,110 to 111,CCOC(=O)c1nn(-c2ccccc2)c2c1CCCc1ccccc1-2
25,106 to 108,CC(C)C1(C)NC(c2ccc(C=O)cn2)=NC1=O (configuration not stated)
26,218 to 219,Cn1ncnc1COc1nn2c(-c3ccccc3F)nncc2c1I
27,101 to 105,COc1cc(CNc2nc(C)nc(C)c2Cl)ccc1OCc1ccccc1
28,89 to 91,Cc1cc(SCc2ccnc3c2nc(-c2ccc(C(F)(F)F)cc2)n3C)ccc1CCC(=O)O
29,140 to 143,CCOC(=O)COc1c(Cl)c(Cl)c2c(-c3ccccc3F)noc2c1Cl
30,226 to 227,CCCOc1ccccc1-c1nc2c(C(N)=O)cccc2c(=O)[nH]1
